Measurements as given in patent US20250326765A1, “PDE4B INHIBITOR AND USE THEREOF” (XIZANG HAISCO PHARMACEUTICAL CO., LTD., priority 2022, published 2025).
Where two headings read alike, the source gives them in different places.

Columns and labels:
PDE4B2 = target: T1, PDE4B2 (Homo sapiens, UniProt Q07343); assay: Effect of compounds on PDE4B2 activity (fluorescence polarization kit); format: biochemical
T1 construct: purchased BPS Bioscience 60343
Method: The effect of compounds on PDE4B2 activity was detected by a fluorescence polarization kit (BPS Bioscience, Catalog #60343). According to the instructions of the kit, FAM-Cyclic-3′,5′-AMP at a final concentration of […], 1 ng/well of PDE4B2 (PDE buffer was added to the negative control well), and a compound diluted in a gradient manner (PDE buffer containing 10% DMSO was added to the positive control well) were added to each well, fully mixed, and then reacted at room temperature for 1 h. The Binding Agent was diluted with the Binding Agent Diluent (cAMP) at a ratio of 1:100 for later use, the Binding Agent dilution was taken and added to the test plate at 50 μl/well and incubated at room temperature with slow shaking for 20 minutes. After the incubation was complete, Envision was used for FP detection, with Excitation at 480 nm and Emission at 535 nm. FP was usually represented by mP value.
[formula] • I∥ (S535): fluorescence intensity in parallel direction • I⊥ (P535): fluorescence intensity in perpendicular direction • G: G factor=1
(§1) [formula] • mP(sample): mP of the test compound in a reaction well • mP(negative control): mP in the negative control well • mP(positive control): mP in the positive control well
(§2) According to the calculated inhibition rate at each concentration, the IC50 value of each compound was calculated by GraphPad Prism 8 software.

[1] = Inhibition of LPS-induced TNF-α release from human peripheral blood mononuclear cells in vitro; format: cell-based; settings: PBMC, hPBMC, 100 ng/mL LPS, 4 h; for IC50: class symbols, read-out: Re IC50 (nM) (relative IC50), TNF-α induced by LPS; for Emax: read-out: Max inhibition (%)
Method: Normal human peripheral blood which was anticoagulated (citric acid anticoagulation) was collected, and hPBMCs were prepared by Ficoll-Paque PLUS (Cytiva, Cat #17144002, density 1.077 g/mL). The concentration of hPBMC cells was adjusted to 0.25×10^6 cells/mL with RPMI1640 medium and inoculated into a 96-well plate in an amount of 50000 cells per well. Subsequently, different concentrations of drugs were added for pre-incubation for 1 h (the DMSO final concentration was 0.1%, and the positive and negative control wells had the same volume of RPMI1640 containing 0.1% DMSO). After the pre-incubation was complete, 100 ng/mL LPS (SIGMA, L2630) was added to the compound and positive control wells, and the negative control well had the same volume of RPMI1640 containing 0.1% DMSO. Incubation was carried out for 4 h in an incubator at 37° C. and 5% CO2. The cell supernatant was collected, and the content of TNF-α in the supernatant sample was detected by human TNF-α Elisa quantitative test kit (Sino Biological, Cat #KIT10602). The IC50 value was calculated using GraphPad Prism software.

PDE4D2 = target: T2, PDE4D2 (Homo sapiens, UniProt Q08499); assay: Effect of compounds on PDE4D2 activity (fluorescence polarization kit); format: biochemical; settings: class symbols
T2 construct: purchased BPS Bioscience 60345
T2 sequence (Q08499 303-809): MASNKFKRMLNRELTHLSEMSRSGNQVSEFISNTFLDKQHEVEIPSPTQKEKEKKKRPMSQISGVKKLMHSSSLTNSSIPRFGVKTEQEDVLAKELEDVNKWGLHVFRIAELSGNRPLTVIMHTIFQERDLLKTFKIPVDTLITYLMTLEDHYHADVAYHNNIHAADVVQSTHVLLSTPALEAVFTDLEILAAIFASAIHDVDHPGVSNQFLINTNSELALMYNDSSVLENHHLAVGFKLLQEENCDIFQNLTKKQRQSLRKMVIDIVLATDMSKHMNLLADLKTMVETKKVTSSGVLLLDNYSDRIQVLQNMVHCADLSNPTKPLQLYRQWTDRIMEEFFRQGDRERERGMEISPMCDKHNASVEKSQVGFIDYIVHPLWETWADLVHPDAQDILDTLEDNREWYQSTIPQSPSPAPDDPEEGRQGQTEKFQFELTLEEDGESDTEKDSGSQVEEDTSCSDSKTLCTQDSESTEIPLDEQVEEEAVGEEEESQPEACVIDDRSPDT
Method: The effect of compounds on PDE4D2 activity was detected by a fluorescence polarization kit (BPS Bioscience, Catalog #60345). During the reaction, 12.5 μL of 0.272 ng/well of an enzyme (final concentration: 0.068 ng/well) and 12.5 μL of the compound diluted in a gradient manner (DMSO concentration: 4%) were first pre-incubated at room temperature for 15 minutes, the same volume of the enzyme at the same concentration and 12.5 μL of PDE buffer containing 4% DMSO were added to the positive control well, and 25 μL of PDE buffer containing 2% DMSO was added to the negative control well. After completion, 25 μL of […] FAM-Cyclic-3′,5′-AMP (final concentration: […]) was added to each well, fully mixed, and then incubated at room temperature with slow shaking for 30 minutes. The Binding Agent was diluted with the Binding Agent Diluent (cAMP) at a ratio of 1:100 for later use, 100 μl/well of the Binding Agent dilution was taken and added to all wells of the test plate and incubated at room temperature with slow shaking for 1 hour.
After the incubation was complete, BMG LRBTECH microplate reader was used for FP detection, with Excitation at 485 nm and Emission at 520 nm. FP was usually represented by mP value.
[formula] • I∥ (S520): fluorescence intensity in parallel direction • I⊥ (P520): fluorescence intensity in perpendicular direction • G: G factor=1
as §1, §2

[2] = Pharmacokinetic test in mice; format: in vivo, ICR mice
Method: 5.1 Experimental animals: Male ICR mice, 20-25 g, 6 mice/compound. Purchased from Chengdu Ddossy Experimental Animals Co., Ltd.
5.2 Experimental design: On the day of the experiment, 42 ICR mice were randomly grouped according to their body weights. The animals were fasted with water available for 12-14 h one day before administration and fed 4 h after administration.
Before and after administration, 0.06 mL of blood was taken from the orbit under isoflurane anesthesia and placed in an EDTAK2 centrifuge tube for centrifugation at 5000 rpm at 4-C for 10 min, followed by plasma collection. The blood collection time points for the intravenous group and intragastric group were both 0 m, 5 mi, 15 mi, 30 mi, 1 h, 2 h, 4 h, 6 h, 8 h, and 24 h. Before analysis and detection, all the samples were stored at −80° C., and the samples were subjected to quantitative analysis using LC-MS/MS.

[3] = class symbols, read-out: PDE4B2 IC50
[4] = male, ICR, mouse, iv, plasma, i.v. (5 mg/kg)
[5] = male, ICR, mouse, po, plasma, i.g. (10 mg/kg)

T1 sequence (Q07343 1-564 isoform Q07343-2): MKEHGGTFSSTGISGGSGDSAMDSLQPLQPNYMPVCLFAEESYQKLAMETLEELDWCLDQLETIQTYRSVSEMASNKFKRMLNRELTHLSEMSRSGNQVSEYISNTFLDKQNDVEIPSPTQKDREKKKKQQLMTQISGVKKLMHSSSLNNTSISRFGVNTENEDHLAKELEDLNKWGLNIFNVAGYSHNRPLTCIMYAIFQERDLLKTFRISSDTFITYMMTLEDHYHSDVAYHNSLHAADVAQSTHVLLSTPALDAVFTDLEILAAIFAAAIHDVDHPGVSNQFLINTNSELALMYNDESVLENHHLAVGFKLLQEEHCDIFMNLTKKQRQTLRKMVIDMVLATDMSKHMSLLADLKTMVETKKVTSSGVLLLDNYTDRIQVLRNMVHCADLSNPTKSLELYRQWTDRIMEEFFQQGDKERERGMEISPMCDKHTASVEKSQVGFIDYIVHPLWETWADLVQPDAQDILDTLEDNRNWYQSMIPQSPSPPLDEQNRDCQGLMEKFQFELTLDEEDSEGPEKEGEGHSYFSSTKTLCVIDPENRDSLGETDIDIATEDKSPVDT

Compound | IC50 (PDE4B2; [3]) [nM] | IC50 (PDE4D2) [nM] | also measured
[O-][S@+]1CCc2nc(N3C[C@H]4CN(c5ncc6c(n5)CC6)C[C@H]4C3)nc(NC3(CO)CCC3)c21 [Compound 65] | < 10 | < 10 | IC50 [1]: 10 to 50 nM; Emax [1]: 82%
[O-][S@+]1CCc2nc(N3CC=C(c4ncc5c(n4)COB5O)CC3)nc(NC3(CO)CCC3)c21 [Compound 79] | < 10 | 10 to 50 | IC50 [1]: < 10 nM; Emax [1]: 61.5%
CP(C)(=O)c1cccc(C2=CCN(c3nc4c(c(NC5(CO)CCC5)n3)[S@+]([O-])CC4)CC2)c1 [Compound 63] | < 10 | < 10 | 
CC(=O)N1CCN2c3ccc(-c4nc5c(c(NC6(CO)CCC6)n4)[S+]([O-])CC5)cc3OCC2C1 (single isomer, unassigned) [Compound 78-1] | 10 to 50 |  | IC50 [1]: < 10 nM; Emax [1]: 61.2%
N#CC1(c2cnc(C3=CCN(c4nc5c(c(NC6(CO)CCC6)n4)[S@+]([O-])CC5)CC3)nc2)CC1 [Compound 64] | < 10 | 10 to 50 | IC50 [1]: < 10 nM; Emax [1]: 70.8%
[O-][S@+]1CCc2nc(N3CC=C(c4ccc5c(c4)COB5O)CC3)nc(NC3(CO)CCC3)c21 [Compound 66] | < 10 | < 10 | IC50 [1]: 10 to 50 nM; Emax [1]: 79.3%
[O-][S@+]1CCc2nc(N3CCC(c4ccc5c(c4)CCC5)CC3)nc(NC3(CO)CCC3)c21 [Compound 9] |  | 10 to 50 | 
[O-][S@+]1CCc2nc(N3CC=C(c4cccc(SC(F)(F)F)c4)CC3)nc(NC3(CO)CCC3)c21 [Compound 52] |  | 10 to 50 | 
[O-][S@+]1CCc2nc(C3=CCN(c4ncc(Cl)cn4)CC3)nc(NC3(CO)CCC3)c21 [Compound 32] |  | 10 to 50 | 
[O-][S@+]1CCc2nc(N3CCC(c4ccc5c(c4)CC5)CC3)nc(NC3(CO)CCC3)c21 [Compound 8] | 10 to 50 | 10 to 50 | 
C[Si]1(C)CCN(c2cnc(C3=CCN(c4nc5c(c(NC6(CO)CCC6)n4)[S@+]([O-])CC5)CC3)nc2)CC1 [Compound 54] | < 10 | < 10 | IC50 [1]: 10 to 50 nM; Emax [1]: 78.4%
[O-][S@+]1CCc2nc(N3CC=C(c4nc5ccccc5s4)CC3)nc(NC3(CO)CCC3)c21 [Compound 56] | < 10 | < 10 | 
[O-][S+]1CCc2nc(N3CC=C(c4ncc(C5CC5)cn4)CC3)nc(NC3(CO)CCC3)c21 (stereo not drawn) [Compound 53] | < 10 | < 10 | 
CC#Cc1cnc(C2=CCN(c3nc4c(c(NC5(CO)CCC5)n3)[S@+]([O-])CC4)CC2)nc1 [Compound 76] | < 10 | < 10 | IC50 [1]: < 10 nM; Emax [1]: 73.8%
Cc1coc(C2=CCN(c3nc4c(c(NC5(CO)CCC5)n3)[S@+]([O-])CC4)CC2)n1 [Compound 60] | 10 to 50 | 10 to 50 | 
[O-][S@+]1CCc2nc(N3CC=C(c4cccc(S(F)(F)(F)(F)F)c4)CC3)nc(NC3(CO)CCC3)c21 [Compound 51] | < 10 | 10 to 50 | 
CC1CN(c2ccc3c(c2)OCC2CN(c4nc5c(c(NC6(CO)CCC6)n4)[S@+]([O-])CC5)CCN32)C1 (single isomer, unassigned) [Compound 81-2] | < 10 | < 10 | 
[O-][S+]1CCc2nc(N3CCC4=C(CCc5cc(Cl)ccc54)C3)nc(NC3(CO)CCC3)c21 (stereo not drawn) [Compound 30] |  | < 10 | 
CP(C)(=O)c1ccnc(C2=CCN(c3nc4c(c(NC5(CO)CCC5)n3)[S@+]([O-])CC4)CC2)n1 [Compound 71] | 10 to 50 | 10 to 50 | 
[O-][S@+]1CCc2nc(N3CC=C(c4ccc(Cl)cc4)CC3)nc(NC3(CO)CCC3)c21 [Compound 1] | < 10 | < 10 | IC50 (PDE4B2; values in text, read-out: IC50 against PDE4B2): 2.45 nM; F ([2]; i.g. (10 mg/kg)): 76.2 ± 4.7%; AUC(0-t) [2, 4]: 8660 ± 759 ng·h/mL; clearance [2, 4]: 4.55 ± 0.46 mL/min/kg; half-life [2, 4]: 370 ± 42.6 min; Vd ([2]; male, ICR, mouse, iv, plasma, i.v. (5 mg/kg), read-out: Vdss): 2.07 ± 0.2 L/kg; AUC(0-t) [2, 5]: 26400 ± 1640 ng·h/mL; half-life [2, 5]: 942 ± 246 min
[O-][S@+]1CCc2nc(N3CC=C(c4ccc(Cl)cc4)CCC3)nc(NC3(CO)CCC3)c21 [Compound 4] | 10 to 50 | 10 to 50 | 
[O-][S@+]1CCc2nc(N3CC4(CC(c5ccc(Cl)cc5)C4)C3)nc(NC3(CO)CCC3)c21 [Compound 10] | 10 to 50 | 10 to 50 | 
N#Cc1cnc(C2=CCN(c3nc4c(c(NC5(CO)CCC5)n3)[S@+]([O-])CC4)CC2)nc1 [Compound 50] | 10 to 50 | 10 to 50 | 
CC#Cc1ccc(C2=CCN(c3nc4c(c(NC5(CO)CCC5)n3)[S@+]([O-])CC4)CC2)nc1 [Compound 82] | < 10 | < 10 | 
[O-][S@+]1CCc2nc(N3C[C@H]4CN(c5ccc(Cl)cc5)C[C@H]4C3)nc(NC3(CO)CCC3)c21 [Compound 6] | 10 to 50 | < 10 | 
C#Cc1cnc(N2CCN(c3nc4c(c(NC5(CO)CCC5)n3)[S+]([O-])CC4)CC2)nc1 (stereo not drawn) [Compound 57] | 10 to 50 | 10 to 50 | 
[O-][S@+]1CCc2nc(N3CCC(c4ccc(Cl)cc4)=C(F)C3)nc(NC3(CO)CCC3)c21 [Compound 43] | < 10 | 10 to 50 | 
[O-][S@+]1CCc2nc(N3CC=C(c4nc5ccccc5o4)CC3)nc(NC3(CO)CCC3)c21 [Compound 58] | < 10 | < 10 | 
CP(C)(=O)c1cnc(C2=CCN(c3nc4c(c(NC5(CO)CCC5)n3)[S@+]([O-])CC4)CC2)nc1 [Compound 59] | 10 to 50 | 10 to 50 | 
